Assay [1] deals with HUVEC. The experiment in a line: Effect of growth factors and retinyl acetate on angiogenesis in the sclera model. It counts as cell-based, Human. How it is done:
The fibrinogen solution (3 mg/ml) was mixed with the thrombin solution (1.75 mg/ml) at a ratio of 1:0.03 v/v in wells of different sizes. Within a minute, enzymatic polymerization of fibrinogen gave fibrin gels under gentle agitation at 37° C. To incorporate endothelial cells in the fibrin matrix and to induce angiogenesis, endothelial cells were firstly seeded on the bottom of gelatin-coated wells at high density to provide a confluent monolayer at 48 hours. […] Fibrin gels were obtained again within a minute. Within 2 weeks of culture at 37° C. with 5% CO2, tube like vessels were generated within the matrix that associated together in order to form cord structures. These were visible by light microscopy and were counted in order to give an indication of vessel numbers. A combinatorial approach was utilized to evaluate what factors are required to achieve the optimal number of blood vessels within this sclera model. The pseudo sclera was generated as per Section 3.1.3. […] The effectiveness of the growth factors in positively affecting angiogenesis was evaluated by counting the number of tubes identified in a dish by brightfield microscopy. […] The effect of RA on angiogenesis was evaluated in the system described above. […] Blood vessel formation was evaluated by counting the number of vessels within a treated dish. […]

In assay [2] the test system is innervated TE cornea constructs. The assay is described as follows: Substance P release from innervated TE corneas (EIA). It counts as cell-based, chick. Conditions: for SP release versus controls: 1% capsaicin or 50 μM veratridine, P<0.05. How it is done: To elicit a functional response such as SP release, innervated TE cornea constructs were treated with capsaicin or veratridine. Briefly, innervated tissue engineered corneas were treated with a total of 1.5 ml of SHEM containing 8.5% Tween 80 and 1.5% ethanol either alone (control) or with 1) 1% (w/v) capsaicin, or 2) 50 μM veratridine. At 0, 1, 3, 6, 12 and 24 hours post-treatment, culture supernatants were collected, flash frozen in liquid nitrogen and stored at −80° C. Substance P content of the medium was measured using a substance P specific competitive peptide enzyme immunoassay (EIA) kit (Peninsula Laboratories). […] All groups, n 3. *P<0.001 versus control (2-way ANOVA).

Assay [3] has as its system nerve bundles growing into the cornea. The assay is described as follows: Electrophysiological recording of evoked action potentials in TE corneas. As to conditions: 50 mM lidocaine HCl; stimulation of ganglion cell cluster. It counts as cell-based, chick. The text has this: Direct electrophysiological recording from the corneal epithelium was therefore conducted to confirm that nerve bundles growing into the cornea were able to conduct lidocaine-sensitive action potentials that were evoked by stimulation of the ganglion cell cluster (FIG. 3C, D). Tissue engineered corneas were transferred into an interface recording chamber, perfused with artificial saline containing (in mM): NaCl: 126, KCl: 3.0, MgSO4: 2.0, NaHCO3: 26, NaH2PO4 1.25, CaCl2: 2.0, dextrose: 10, oxygenated with 95% O2/5% CO2 at room temperature. Cathodal stimulation of ganglion cell clusters was done using silver wires pressed lightly against the surface and applying square wave stimulus pulses of 50 μs duration and typically 60-80 V in amplitude. Differential recordings of electrical responses from nerve fibre bundles were recorded with glass micropipettes (≈50 μm tips) filled with 150 mM NaCl. Because of the close proximity of the stimulation to the recording electrodes, a very large stimulus artefact was generated that obscured the very small action potentials (FIG. 3C, the action potential is indicted by the arrow).
To observe action potentials in isolation, evoked responses were recorded before and after addition of 50 mM lidocaine HCl. […]

The test system of assay [4] is neutrophils. The experiment in a line: Zymographic detection of metalloproteases. The assay is classed as cell-based. Conditions: neutrophils added on top of collagen matrix. Here is the method:
Metalloproteinases MMPs) are a family of closely related zinc-containing enzymes whose principal function is thought to be an integral part of generalized tissue remodeling as well as the formation of new blood vessels. Zymography has the advantage that in addition to detecting enzyme activity it can be used to provide information about the molecular weight of an enzyme and so help identify the enzyme. To achieve this dissolved gelatin is incorporated into a polyacrylamide gel, samples are added to the gel, separated by electrophoresis and the gel allowed to incubate for a while to allow the enzymes to degrade the gelatin. When the gels are stained for proteins clear lysis bands are apparent where the metalloproteinases have degraded the gelatin.

For `CC(=O)OC/C=C(C)/C=C/C=C(C)/C=C/C1=C(C)CCCC1(C)C` [RA, Retinyl acetate], the “number of blood vessels” value in assay [1] (high levels of RA) is recorded as “decreased”. The “Blood vessel formation (number of vessels)” value in assay [1] (various concentrations of RA) was “increases in a dose dependent fashion and is optimal at an intermediate range”.
As for `COc1cc(CNC(=O)CCCC/C=C/C(C)C)ccc1O` [capsaicin], in assay [2] (1% (w/v) capsaicin, 1, 3, 6, 12 and 24 hours, P<0.001), the “release of SP versus controls” value is recorded as “significantly greater”. In addition, the “SP release versus controls” value in assay [2] (6 hours post-treatment) and in assay [2] (24 hours post-treatment) was “significant increase” each time.
Turning to `CCN(CC)CC(=O)Nc1c(C)cccc1C` [lidocaine], the “sensitivity of evoked action potentials” value in assay [3] is listed as “lidocaine-sensitive”.
For the molecule formyl-Met-Leu-Phe [FMLP], the “stimulation of neutrophils (MMP-2 and MMP-9 detected)” value in assay [4] is reported as “able to stimulate them”.
